The results in this text go back to patent publication US20250051315A1, “COMPOUND, ANGIOTENSIN II TYPE 1 RECEPTOR ANTAGONIST AND PHARMACEUTICAL COMPOSITION” (Alchemedicine, Inc., priority 2021, published 2025).

Test [1] has as its target T1, human endothelin A receptor (Homo sapiens, UniProt P25101).
T1 construct: expressed in transfected cells; host or cells: CHO-K1-mt aequorin cells
T1 sequence (P25101 21-427): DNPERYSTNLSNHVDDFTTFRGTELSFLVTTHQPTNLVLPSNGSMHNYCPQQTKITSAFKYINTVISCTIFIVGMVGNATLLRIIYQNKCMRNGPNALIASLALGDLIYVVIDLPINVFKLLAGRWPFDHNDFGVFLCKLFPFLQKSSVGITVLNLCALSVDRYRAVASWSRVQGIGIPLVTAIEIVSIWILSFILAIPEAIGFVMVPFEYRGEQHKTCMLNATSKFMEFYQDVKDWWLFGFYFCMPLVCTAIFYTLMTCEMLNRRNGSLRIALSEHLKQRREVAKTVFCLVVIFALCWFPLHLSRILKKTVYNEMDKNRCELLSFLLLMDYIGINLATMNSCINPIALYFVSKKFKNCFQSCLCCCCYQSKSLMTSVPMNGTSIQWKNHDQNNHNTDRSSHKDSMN
The test can be described thus: Endothelin A receptor inhibitory effect (aequorin luminescence, endothelin at EC80). It counts as cell-based. The conditions noted are these: CHO-K1-mt aequorin cells expressing human endothelin A receptor, read-out: ETA Receptor Inhibitory Effect. How it is done:
The inhibitory effect on endothelin A receptor was studied by the following method.
CHO-K1-mt aequorin cells forced to express human endothelin A receptor (Accession Number: NP_001948.1) were cultured in an antibiotic-free medium for 18 hours and then treated with PBS-EDTA (5 mM EDTA). After centrifugation (2 minutes, 405×g, room temperature), the cells were suspended in assay buffer (DMEM/HAM'S F12 with HEPES+0.1% BSA protease free). 1×10^6 cells/mL of the cells were incubated at room temperature for 4 hours in the presence of Coelenterazin h (Molecular Probes) at a final concentration of 5 μM to confirm the agonist response by endothelin, and determine the concentration of endothelin corresponding to EC 80.
Then, 50 μL of the cell suspension treated with Coelenterazin h at 10,000 cells/well and 50 μL of assay buffer containing the test substance (final concentration: 0.5% DMSO) were added to a 96-well plate. After 15 minutes, endothelin was added so that the final concentration reached the EC80 concentration, and the receptor activity was measured by the amount of luminescence using FDSS6000 (Hamamatsu Photonics). IC50 values were calculated using XLfit (IDBS).

Test [2] addresses T2, human angiotensin II type 1 receptor (Homo sapiens, UniProt P30556).
T2 construct: expressed in transfected cells; host or cells: CHO-K1-mt aequorin-Gα16 cells
T2 sequence (P30556 1-359): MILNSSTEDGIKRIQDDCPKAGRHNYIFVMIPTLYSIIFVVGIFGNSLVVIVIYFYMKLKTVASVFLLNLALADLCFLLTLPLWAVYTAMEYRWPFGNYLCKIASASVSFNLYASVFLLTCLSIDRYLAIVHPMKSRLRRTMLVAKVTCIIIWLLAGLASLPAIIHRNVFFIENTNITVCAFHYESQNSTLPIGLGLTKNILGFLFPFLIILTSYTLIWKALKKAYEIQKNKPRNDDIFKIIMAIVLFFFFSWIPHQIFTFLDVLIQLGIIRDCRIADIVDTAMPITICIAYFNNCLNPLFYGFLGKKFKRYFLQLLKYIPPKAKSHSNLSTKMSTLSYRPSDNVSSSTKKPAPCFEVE
The test is described as follows: Angiotensin II type 1 receptor inhibitory effect (aequorin luminescence, angiotensin II at EC80). It counts as cell-based. The conditions noted are these: CHO-K1-mt aequorin-Gα16 cells expressing human AT1 receptor. How it is done:
The inhibitory effect on angiotensin II type 1 receptor was studied by the following method.
CHO-K1-mt aequorin-Gα16 cells forced to express human angiotensin II type 1 receptor (Accession Number: NP 000676.1) were cultured in an antibiotic-free medium for 18 hours and then treated with PBS-EDTA (5 mM EDTA). After centrifugation (2 minutes, 405×g, room temperature), the cells were suspended in assay buffer (DMEM/HAM's F12 with HEPES+0.1% BSA protease free).
1×10^6 cells/mL of the cells were incubated at room temperature for 4 hours or more in the presence of Coelenterazin h (Molecular Probes) at a final concentration of 5 µM to confirm the agonist response by angiotensin II, and determine the concentration of angiotensin II corresponding to EC 80.
Then, 50 μL of the cell suspension treated with Coelenterazin h at 10,000 cells/well and 50 μL of assay buffer containing the test substance (final concentration: 0.5% DMSO) were added to a 96-well plate. After 15 minutes, 100 μL of angiotensin II solution was added so that the final concentration reached the EC80 concentration, and the receptor activity was measured by the amount of luminescence using FDSS6000 (Hamamatsu Photonics). IC50 values were calculated using XLfit (IDBS).

Test [3] relates to Angiotensin II-Induced Hypertensive Activity. The test is described as follows: Suppressive effect on angiotensin II-induced hypertensive activity. It counts as in vivo. The settings on record: anesthetized male Wistar rats; 1 mg/kg intravenously over 10 minutes, then ATII 300 ng/kg i.v.; 20 seconds after ATII; n=3. Here is the method:
Male Wistar rats aged 8 to 12 weeks underwent catheterization of the trachea for airway management, catheterization of the carotid artery for blood pressure measurement, and catheterization of the femoral vein for angiotensin II (ATII) administration, under analgesic treatment and urethane anesthesia. After confirming that blood pressure and heart rate had stabilized, 1 mg/kg (15 mL/kg) of solvent (PBS) or test substance (the compound of Example 1) adjusted with the solvent was administered intravenously over 10 minutes. Then, ATII (300 ng/kg) was administered intravenously and blood pressure was monitored until 10 minutes after administration. The test was performed with n=3 in each group. For analysis, using 2 minutes before ATII administration as a pre-value, the systolic and diastolic blood pressures at the pre-value and 20 seconds immediately after ATII administration, when the blood pressure is maximum, were determined and the differences (delta values) from the pre-values were calculated. Student's t-test was used to compare the delta values between the solvent administration group and test substance administration group.

Consider `CCCCC1=NC2(CCCC2)C(=O)N1Cc1ccc(-c2ccccc2S(=O)(=O)Nc2ncc(C)nc2OC)c2c1COC2` [Example 2, 2-(7-((2-Butyl-4-oxo-1,3-diazaspiro[4,4]nona-1-en-3-yl)methyl)-1,3-dihydroisobenzofuran-4-yl)-N-(3-methoxy-5-methylpyrazin-2-yl)benzenesulfonamide], for which the IC50 in test [1] and in test [2] was 0.001 to 0.1 µM throughout.

As to `CCCCC1=NC2(CCCC2)C(=O)N1Cc1ccc(-c2ccccc2S(=O)(=O)Nc2noc(C)c2Cl)c2c1COC2` [Example 3, 2-(7-((2-Butyl-4-oxo-1,3-diazaspiro[4,4]nona-1-en-3-yl)methyl)-1,3-dihydroisobenzofuran-4-yl)-N-(4-chloro-5-methylisoxazol-3-yl)benzenesulfonamide], the IC50 in test [1] and in test [2] was 0.001 to 0.1 µM throughout.

`CCCCC1=NC2(CCCC2)C(=O)N1Cc1ccc(-c2ccccc2S(=O)(=O)Nc2noc(C)c2C)c2c1COC2` [Example 1, 2-(7-((2-Butyl-4-oxo-1,3-diazaspiro[4,4]nona-1-en-3-yl)methyl)-1,3-dihydroisobenzofuran-4-yl)-N-(4,5-dimethylisoxazol-3-yl)benzenesulfonamide]: the IC50 in test [1] is over 0.1 µM. Further, in test [3], the “Diastolic Blood Pressure, difference (delta value) from pre-value” came to 9 ± 5 and the “Systolic Blood Pressure, difference (delta value) from pre-value” turned out to be 8 ± 3. The compound further had an IC50 in test [2] of at most 0.001 µM.
